Results published in US20050096327A1, “Novel norepinephrine reuptake inhibitors for the treatment of central nervous system disorders” (priority 2003, published 2005).

Legend:
[1] = target: T1, human norepinephrine transporter (Homo sapiens, UniProt P23975); experiment: hNET receptor binding ([125I]-RTI-55, membranes of transfected HEK-293 cells); conditions: 50 pM [125I]-RTI-55, 90 min room temperature; IC50 converted by Cheng-Prusoff
T1 construct: host or cells: HEK-293
Protocol: (§1) Cell pastes of HEK-293 cells transfected with the human norepinephrine transporter were supplied by the Pfizer Ann Arbor Protein Expression and Production group. Pellets were resuspended in 400 to 700 ml of Krebs-HEPES assay buffer (25 mM HEPES, 122 mM NaCl, 3 mM KCl, 1.2 mM MgSO4, 1.3 mM CaCl2, and 11 mM glucose, pH 7.4) with a Polytron homogenizer at setting 7 for 30 sec. Aliquots of membranes (5 mg/ml protein) were stored in liquid nitrogen until used.
The binding assay was set up in Beckman deep-well polypropylene plates with a total volume of 250 μl containing: drug (10^−5M to 10^−12M), cell membranes, and 50 pM [^125I]-RTI-55 (Perkin Elmer, NEX-272; specific activity 2200 Ci/mmol). The reaction was incubated by gentle agitation for 90 min at room temperature and was terminated by filtration through Whatman GF/C filter plates using a Brandel 96-well plate harvester. Scintillation fluid (100 μl) was added to each well, and bound [^125I]-RTI-55 was determined using a Wallac Trilux Beta Plate Counter. Test compounds were run in duplicate, and specific binding was defined as the difference between binding in the presence and absence of 10 μM desipramine.
Excel and GraphPad Prism software were used for data calculation and analysis. IC50 values were converted to Ki values using the Cheng-Prusoff equation. The Ki values for the hNET are reported below in Table 1.

[2] = target: T2, human serotonin transporter (Homo sapiens, UniProt P31645); experiment: hSERT receptor binding ([125I]-RTI-55, membranes of transfected HEK-293 cells); conditions: 50 pM [125I]-RTI-55, 90 min room temperature; IC50 converted by Cheng-Prusoff
T2 construct: host or cells: HEK-293
T2 sequence (P31645 whole entry): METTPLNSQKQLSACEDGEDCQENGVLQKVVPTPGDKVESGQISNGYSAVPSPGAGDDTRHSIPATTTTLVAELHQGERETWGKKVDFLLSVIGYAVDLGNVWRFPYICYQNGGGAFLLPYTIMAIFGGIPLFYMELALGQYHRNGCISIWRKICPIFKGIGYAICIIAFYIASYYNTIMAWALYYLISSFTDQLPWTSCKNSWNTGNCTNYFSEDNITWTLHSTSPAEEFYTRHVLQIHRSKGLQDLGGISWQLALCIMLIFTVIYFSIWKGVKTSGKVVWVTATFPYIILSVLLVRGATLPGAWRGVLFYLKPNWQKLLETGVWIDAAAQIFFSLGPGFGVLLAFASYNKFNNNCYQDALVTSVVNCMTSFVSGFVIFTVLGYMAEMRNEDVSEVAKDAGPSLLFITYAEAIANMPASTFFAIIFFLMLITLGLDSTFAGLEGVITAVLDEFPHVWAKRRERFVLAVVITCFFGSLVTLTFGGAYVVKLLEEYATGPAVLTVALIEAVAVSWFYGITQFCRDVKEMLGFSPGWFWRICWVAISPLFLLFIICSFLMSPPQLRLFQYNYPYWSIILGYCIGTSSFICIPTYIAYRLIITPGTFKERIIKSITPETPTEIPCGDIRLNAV
Protocol: as §1, with “serotonin” for “norepinephrine”, “Group.” for “group.”, “mL” for “ml”, “Setting” for “setting”, “seconds.” for “sec.”, “(˜2.5 mg/mL” for “(5 mg/ml”
Assays were set up in FlashPlates pre-coated with 0.1% PEI in a total volume of 250 μL containing: drug (10^−5M to 10^−12M), cell membranes, and 50 pM [^125I]-RTI-55 (Perkin Elmer, NEX-272; specific activity 2200 Ci/mmol). The reaction was incubated and gently agitated for 90 minutes at room temperature, and terminated by removal of assay volume. Plates were covered, and bound [^125I]-RTI-55 was determined using a Wallac Trilux Beta Plate Counter. Test compounds were run in duplicate, and specific binding was defined as the difference between binding in the presence and absence of 10 μM citalopram.
Excel and GraphPad Prism software were used for data calculation and analysis. IC50 values were converted to Ki values using the Cheng-Prusoff equation. The Ki values for the hSERT are reported below in Table 1.

T1 sequence (P23975 whole entry): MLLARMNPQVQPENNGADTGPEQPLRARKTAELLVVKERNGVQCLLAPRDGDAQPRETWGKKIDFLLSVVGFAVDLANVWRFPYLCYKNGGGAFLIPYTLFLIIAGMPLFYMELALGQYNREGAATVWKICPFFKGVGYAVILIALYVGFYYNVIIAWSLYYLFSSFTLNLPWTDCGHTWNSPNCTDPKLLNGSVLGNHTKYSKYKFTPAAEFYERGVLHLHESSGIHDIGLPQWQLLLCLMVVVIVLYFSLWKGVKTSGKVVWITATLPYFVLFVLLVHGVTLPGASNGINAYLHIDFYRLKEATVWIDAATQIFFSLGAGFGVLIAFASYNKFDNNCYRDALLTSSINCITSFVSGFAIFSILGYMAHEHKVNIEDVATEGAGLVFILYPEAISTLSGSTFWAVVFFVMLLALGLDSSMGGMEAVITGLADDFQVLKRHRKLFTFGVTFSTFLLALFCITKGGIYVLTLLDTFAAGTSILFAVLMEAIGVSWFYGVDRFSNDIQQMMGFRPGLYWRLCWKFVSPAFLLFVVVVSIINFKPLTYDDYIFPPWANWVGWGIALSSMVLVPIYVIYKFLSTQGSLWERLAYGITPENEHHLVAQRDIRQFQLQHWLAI

SMILES	Ki [1] [nM]	Ki [2] [nM]
Fc1ccccc1-c1nc(C2(c3ccccc3)CCNCC2)nc2ccccc12 [Example 79, 4-(2-Fluoro-phenyl)-2-(4-phenyl-piperidin-4-yl)-quinazoline]	63.4	–
c1ccc(-c2nc(N3CC4CC3CN4)nc3ccccc23)cc1 (centres unmarked) [Example 80, 2-(2,5-Diaza-bicyclo[2.2.1]hept-2-yl)-4-phenyl-quinazoline]	9.5	–
c1ccc(-c2nc(N3CC4CNCC4C3)nc3ccccc23)cc1 (centres unmarked) [Example 81, 2-(Hexahydro-pyrrolo[3,4-c]pyrrol-2-yl)-4-phenyl-quinazoline]	61	–
CN1CCN(c2nc(-c3c(F)cccc3F)c3ccc(F)cc3n2)CC1 [Example 83, 4-(2,6-Difluoro-phenyl)-7-fluoro-2-(4-methyl-piperazin-1-yl)-quinazoline]	37.6	314
Brc1ccc2nc(N3CCNCC3)nc(-c3ccccc3)c2c1 [Example 91, 6-Bromo-4-phenyl-2-piperazin-1-yl-quinazoline]	211	31.4
N[C@@H]1CCN(c2nc(-c3c(F)cccc3F)c3ccc(F)cc3n2)C1 [Example 93, R-1-[4-(2,6-Difluoro-phenyl)-7-fluoro-quinazolin-2-yl]-pyrrolidin-3-ylamine]	21.9	50.6
Fc1ccc2c(-c3ccccc3)nc(N3CCNCC3)nc2c1 [Example 97, 7-Fluoro-4-phenyl-2-piperazin-1-yl-quinazoline]	13.8	49.6
Fc1ccc2c(-c3c(F)cccc3F)nc(N3CCNCC3)nc2c1 [Example 98, 4-(2,6-Difluoro-phenyl)-7-fluoro-2-piperazin-1-yl-quinazoline]	20	32
Fc1cccc(F)c1-c1nc(N[C@@H]2CCNC2)nc2ccccc12 [Example 99, R-[4-(2,6-Difluoro-phenyl)-quinazolin-2-yl]-pyrrolidin-3-yl-amine]	45.7	2900
Fc1ccc2c(-c3c(F)cccc3F)nc(N[C@H]3CCNC3)nc2c1 [Example 100, S-[4-(2,6-Difluoro-phenyl)-7-fluoro-quinazolin-2-yl]-pyrrolidin-3-yl-amine]	29.3	649
N[C@@H]1CCN(c2nc(-c3cccc(F)c3F)c3ccccc3n2)C1 [Example 102, R-1-[4-(2,3-Difluoro-phenyl)-quinazolin-2-yl]-pyrrolidin-3-ylamine]	11.4	155
C[C@H]1CNCCN1c1nc(-c2c(F)cccc2F)c2ccc(F)cc2n1 [Example 107, S-4-(2,6-Difluoro-phenyl)-7-fluoro-2-(2-methyl-piperazin-1-yl)-quinazoline]	47.3	30.8
Fc1ccc(-c2nc(N3CCNCC3)nc3ccccc23)cc1F [Example 108, 4-(3,4-difluoro-phenyl)-2-piperazin-1-yl-quinazoline]	7.7	77.7
Fc1ccc2c(-c3cccc(F)c3F)nc(N3CCNCC3)nc2c1 [Example 111, 4-(2,3-Difluoro-phenyl)-7-fluoro-2-piperazin-1-yl-quinazoline]	18.6	37.1
CN1CCN(c2nc(-c3ccc(F)c(F)c3)c3ccccc3n2)CC1 [Example 114, 4-(3,4-Difluoro-phenyl)-2-(4-methyl-piperazin-1-yl)-quinazoline]	–	1090

Further lines, results first:

Ki [1] [nM]	Ki [2] [nM]	SMILES
19.8	–	Cc1ccccc1-c1nc(C2CCCNC2)nc2ccccc12 (centres unmarked) [Example 78, 2-Piperidin-3-yl-4-o-tolyl-quinazoline]
19.4	64.1	C[C@H]1CNCCN1c1nc(-c2ccc(F)cc2F)c2ccccc2n1 [Example 82, S-4-(2,4-Difluoro-phenyl)-2-(2-methyl-piperazin-1-yl)-quinazoline]
49.8	653	Fc1ccc2c(-c3c(F)cccc3F)nc(N[C@@H]3CCNC3)nc2c1 [Example 84, R-[4-(2,6-Difluoro-phenyl)-7-fluoro-quinazolin-2-yl]-pyrrolidin-3-yl-amine]
26.3	265	C[C@H]1CNCCN1c1nc(-c2c(F)cccc2Cl)c2ccccc2n1 [Example 85, S-4-(2-Chloro-6-fluoro-phenyl)-2-(2-methyl-piperazin-1-yl)-quinazoline]
14.4	88.6	C[C@@H]1CNCCN1c1nc(-c2c(F)cccc2F)c2ccccc2n1 [Example 86, R-4-(2,6-Difluoro-phenyl)-2-(2-methyl-piperazin-1-yl)-quinazoline]
20	99.1	C[C@@H]1CNCCN1c1nc(-c2cccc(F)c2F)c2ccccc2n1 [Example 87, R-4-(2,3-Difluoro-phenyl)-2-(2-methyl-piperazin-1-yl)-quinazoline]
18.9	69.3	C[C@H]1CNCCN1c1nc(-c2cccc(F)c2F)c2ccccc2n1 [Example 88, S-4-(2,3-Difluoro-phenyl)-2-(2-methyl-piperazin-1-yl)-quinazoline]
49	110	Clc1ccc2c(-c3ccccc3)nc(N3CCNCC3)nc2c1 [Example 89, 7-Chloro-4-phenyl-2-piperazin-1-yl-quinazoline]
14.6	152	COc1cccc(-c2nc(N3CCNCC3)nc3ccccc23)c1 [Example 90, 4-(3-methoxy-phenyl)-2-piperazin-1-yl-quinazoline]
33.8	53	Fc1ccc2nc(N3CCNCC3)nc(-c3ccccc3)c2c1 [Example 92, 6-Fluoro-4-phenyl-2-piperazin-1-yl-quinazoline]
23.7	15.7	N[C@H]1CCN(c2nc(-c3c(F)cccc3F)c3ccc(F)cc3n2)C1 [Example 94, S-1-[4-(2,6-Difluoro-phenyl)-7-fluoro-quinazolin-2-yl]-pyrrolidin-3-ylamine]
76.9	322	N[C@@H]1CCN(c2nc(-c3c(F)cccc3F)c3ccccc3n2)C1 [Example 95, R-1-[4-(2,6-Difluoro-phenyl)-quinazolin-2-yl]-pyrrolidin-3-ylamine]
12.2	70.8	N[C@H]1CCN(c2nc(-c3c(F)cccc3F)c3ccccc3n2)C1 [Example 96, S-1-[4-(2,6-Difluoro-phenyl)-quinazolin-2-yl]-pyrrolidin-3-ylamine]
7.5	4870	Fc1cccc(F)c1-c1nc(N[C@H]2CCNC2)nc2ccccc12 [Example 101, S-[4-(2,6-Difluoro-phenyl)-quinazolin-2-yl]-pyrrolidin-3-yl-amine]
–	645	CN1CCN(c2nc(-c3ccc(F)c(F)c3)c3ccccc3n2)CC1 [Example 103, 4-(3,4-Difluoro-phenyl)-2-(4-methyl-piperazin-1-yl)-quinazoline]
36.4	27.6	C[C@@H]1CNCCN1c1nc(-c2c(F)cccc2F)c2ccc(F)cc2n1 [Example 104, R-4-(2,6-Difluoro-phenyl)-7-fluoro-2-(2-methyl-piperazin-1-yl)-quinazoline]
16.6	65	C[C@@H]1CNCCN1c1nc(-c2ccccc2)c2ccc(F)cc2n1 [Example 105, R-7-Fluoro-2-(2-methyl-piperazin-1-yl)-4-phenyl-quinazoline]
18.3	49.7	C[C@H]1CNCCN1c1nc(-c2ccccc2)c2ccc(F)cc2n1 [Example 106, S-′7-Fluoro-2-(2-methyl-piperazin-1-yl)-4-phenyl-quinazoline]
13.9	30.4	N[C@H]1CCN(c2nc(-c3cccc(F)c3F)c3ccc(F)cc3n2)C1 [Example 109, S-1-[4-(2,3-Difluoro-phenyl)-7-fluoro-quinazolin-2-yl]-pyrrolidin-3-yl-amine]
13.6	57.1	N[C@@H]1CCN(c2nc(-c3cccc(F)c3F)c3ccc(F)cc3n2)C1 [Example 110, R-1-[4-(2,3-Difluoro-phenyl)-7-fluoro-quinazolin-2-yl]-pyrrolidin-3-yl-amine]
707	204	CN1CCN(c2nc(-c3ccc(F)c(F)c3)c3ccc(F)cc3n2)CC1 [Example 112, 4-(3,4-Difluoro-phenyl)-7-fluoro-2-(4-methyl-piperazin-1-yl)-quinazoline]
28.6	119	Clc1cccc(-c2nc(N3CCNCC3)nc3ccccc23)c1 [Example 113, 4-(3-chloro-phenyl)-2-piperazin-1-yl-quinazoline]
